# Laboratory results as given in paper PMC5024786 (Organic letters, 2015).
# Target: T1, ACC deaminase (1-aminocyclopropane-1-carboxylic acid deaminase) (Pseudomonas sp. ACP, UniProt Q00740)
# T1 sequence (Q00740 1-338): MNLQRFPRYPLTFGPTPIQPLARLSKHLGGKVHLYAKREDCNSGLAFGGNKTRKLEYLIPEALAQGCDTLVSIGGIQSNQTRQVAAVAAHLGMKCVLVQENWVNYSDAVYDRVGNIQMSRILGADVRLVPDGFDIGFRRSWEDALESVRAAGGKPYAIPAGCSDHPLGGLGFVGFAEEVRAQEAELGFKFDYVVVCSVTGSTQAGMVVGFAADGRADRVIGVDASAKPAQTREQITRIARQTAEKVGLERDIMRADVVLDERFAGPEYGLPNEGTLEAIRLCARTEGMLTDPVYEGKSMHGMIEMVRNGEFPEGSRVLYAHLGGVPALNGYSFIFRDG
# Type: biochemical
compound,measurement,value
"NC1(C(=O)O)CC1(F)F (racemic) [compound 3, 1-Amino-2,2-difluorocyclopropane-1-carboxylic acid]",Ki,120 ± 40 nM
